Experimental data: patent US9289490B2, “Combinations and uses thereof” (MORPHOSYS AG, priority 2010, dated 2016)
Values joined by “and” are separate entries in the source; they are usually repeats but may differ in a detail not shown here. Identical values can stand only once.

Key:
[1] = tested on: Plasmacytoma, Malignant Plasma Cells; assay: CD38 surface expression after lenalidomide (FACS, ABC); assay type: cell-based, human
Experimental: Bone marrow samples (4-10 ml aspirate) from multiple myeloma patients and extramedullary tumor plasmacytoma samples were obtained after informed consent from the Klinikum rechts der Isar (“KrdI”) (Munich, Germany). Samples were subjected to centrifugation, and further plasma cell enrichment was achieved via magnetic-activated cell sorting.
(§1) Cells were stained with a directly labelled QuantiBRITE™ CD38-PE antibody (Becton Dickinson GmbH, Clone HB7, CAT #342371), which is specific for CD38. The “Antibodies Bound Per Cell” (ABC's) were determined using the flow cytometry based QuantiBRITE™ system, which measures the geometric mean (GeoMean) per cell. Conversion of measured GeoMean into correlating ABC amount per cell was done with GraphPad PRISM™ software. The ABC values are assumed to correlate with the number of CD38 molecules per cell, since QuantiBRITE™ CD38-PE carries one PE molecule per antibody.
(§2) To determine whether lenalidomide induced upregulation of CD38 in the multiple myeloma and plasmacytoma cells of Table 1, the cell lines were incubated with 100 μM lenalidomide and, subsequently, CD38 surface expression was analyzed by FACS.
(§3) Around 2×10^5 cells of each of the cells lines of Table 1 were plated on 48-well dishes in standard RPMI medium. Lenalidomide, purchased from Selleck Chemicals (LLC S1029, CAS No. 191732-6; Batch: S10290), was applied to respective wells to a final concentration of 100 μM in a volume of 750 μl containing 20% FCS and 0.1% DMSO.
Cells were resuspended by gentle pipetting and 250 μl of cell suspension per incubation period were transferred into a well of a 96-well round bottom plate. Cells were washed by centrifugation for 1 min at 700×g and were resuspended in 150 μl of cold FACS buffer (1×PBS supplemented with 3% FCS). Cells were again pelleted down by centrifugation and were resuspended in 150 μl of FACS buffer containing 15 μg/ml of anti-CD38 antibody (MOR202, IgG1) or control antibody MOR03207 and incubated for 1 h on ice. […]

NCI-H929 cells [2] = assay: Cell proliferation, XTT-based assay; conditions: NCI-H929 cells
Experimental: (§6) Cells were collected and distributed in 96-well plates with 5000 cells per well.
(§7) After incubation, plates were analyzed for cell proliferation in a quantitative colorimietric XTT-based assay using the cell proliferation kit II (ROCHE, Cell Proliferation Kit II, Cat. No.: 11465015001). For subsequent measurement plates were subjected to Tecan Genios Reader and absorbance at 492 nm was detected.
(§8) Increasing amounts of Bortezomib (Velcade®, Lot: No.: #9AZSY00) were applied to AMO-1, LP-1, NCI-H929 and RPMI-8226 cells and incubated for 24 h, 48 h and 72 h. After incubation, period plates were analyzed for cell proliferation in a quantitative colorimietric XTT-based assay using the cell proliferation kit II (ROCHE, Cell Proliferation Kit II, Cat. No.: 11465015001). For subsequent measurement, plates were subjected to Tecan Genios Reader and absorbance at 492 nm was detected.

AMO-1 cells [3] = assay: Cell proliferation, XTT-based assay; design: species or system human
Experimental: as §6, §7, §8

[4] = tested on: NCI-H929 human multiple myeloma cells; assay: NCI-H929 bone lysis SCID mouse MM model, MOR202 and LEN (MicroCT); assay type: in vivo, SCID mice
Experimental: 63 SCID mice were inoculated on Day (−7) orthotopically into the right tibia with 2.5×10^6 NCI-H929 MM cells (in 5 μL) in order to induce bone lysis. Lenalidomide (Groups A and D) and Vehicle Control (Group C) treatments started on Day (−1). MOR202 treatments (Groups B and D) started on Day 0. Treatment continued for 6 weeks.
MicroCT Scan was used to assess bone lysis and included […] analysis comprising Total Bone Volume (TBV), Trabecular Bone Volume (Tb.BV), Trabecular Pattern Factor (Tb.Pf) and Structure Model Index (SMI). Table 10 defines each of these parameters.

NCI-H929 cells [5] = conditions: 5 µM
NCI-H929 cells [6] = assay: ADCC with human PBMCs, flow cytometry (CalceinAM/PI)
OPM-2 cells = assay: CD38 surface expression after lenalidomide (FACS, ABC); assay type: cell-based, human
Experimental: as §1, §2, §3
(§4) Cells were resuspended by gentle pipetting and 250 μl of cell suspension per incubation period were transferred into a well of a 96-well round bottom plate. Cells were washed by centrifugation for 1 min at 700×g and were resuspended in 150 μl of cold FACS buffer (1×PBS supplemented with 3% FCS). Cells were again pelleted down by centrifugation and were resuspended in 150 μl of FACS buffer containing 15 μg/ml of anti-CD38 antibody (MOR202, IgG1) or control antibody MOR03207 and incubated for 1 h on ice. Cells were then washed 3 times by centrifugation and were resuspended in FACS buffer supplemented with PE-labeled secondary antibody (PE-Fab2 fragment, goat anti-human IgG. Fc-fragment specific; Jackson Immuno Research; CAT: 109-116-098; Lot: 80938). Cells were incubated for 45 minutes on ice, then washed 3 times by centrifugation and resuspended in FACS buffer. The cell suspensions were then subjected to FACS analysis using a FACS array device.
(§5) Additionally, the affect of lenalidomide on the CD38 expression of AMO-1 cells is shown in FIG. 1, and the affect of lenalidomide on the CD38 expression of NCI-H929 cells is shown in FIG. 5.

LP-1 cells = assay: as above; assay type: cell-based, human
Experimental: as §1, §2, §3, §4, §5

NCI-H929 cells [7] = assay: as above; assay type: cell-based, human
Experimental: as §1, §2, §3, §4, §5

AMO-1 cells [8] = assay: as above; assay type: cell-based, human
Experimental: as §1, §2, §3, §4, §5

RPMI-8226 cells = assay: as above; assay type: cell-based, human
Experimental: as §1, §2, §3, §4, §5

RAMOS cells = assay: RAMOS non-Hodgkin tumor SCID mouse survival model, MOR202 and lenalidomide; assay type: in vivo, SCID mice
Experimental: Sixty-eight female SCID mice were pre-treated with Cyclophosphamide (75 mg/kg, i.p., twice daily) for two days prior to RAMOS cell inoculation (Day −5 and −4). On the day of inoculation (Day −3), all mice were inoculated with 1×10^6 RAMOS cells each intravenously into the tail vein. Sixty-four of the mice were randomised by body weight into eight groups of eight.
The study continued for 98 days and the measured endpoint was survival.

[9] = LEN 50 mg/kg p.o. once daily, MOR202 3 mg/kg i.p. 3 times weekly, 6 weeks, lower = less bone lysis
[10] = group mean of 10 mice, LEN 50 mg/kg p.o., MOR202 3 mg/kg i.p., 6 weeks

## Nc1cccc2c1CN(C1CCC(=O)NC1=O)C2=O (stereo not drawn) [LEN, lenalidomide]
[1]; 100 μM lenalidomide
  Absolute number of ABC (CD38 expression) LEN (extrapolated): 69,000 ABC
[1]; 100 μM lenalidomide vs basal
  Absolute number of ABC (CD38 expression) INCREASE: 39,000 ABC
  Fold increase (CD38 expression): 2.3 fold
NCI-H929 cells [2]
  Inhibition of cell proliferation by lenalidomide alone (in words): significant effect on the proliferation of NCI-H929 cells
NCI-H929 cells [2]; listed as Lenalidomide
  Inhibition of cell proliferation by lenalidomide alone (in words): signficantly inhibited cell proliferation
AMO-1 cells [3]
  Cytotoxicity of lenalidomide alone (in words): low cytotoxity against AMO-1 cells
[4]; [9]
  Structure Model Index (SMI), individual mouse: 2.679 and 2.667 and 2.335 and 2.560 and 2.086 and 2.619 and 2.562 and 2.592 and 2.547 and 3.125
  Trabecular Pattern Factor (Tb · Pf), individual mouse: 24.329 mm^−1 and 23.561 mm^−1 and 22.893 mm^−1 and 28.280 mm^−1 and 22.213 mm^−1 and 30.739 mm^−1 and 24.016 mm^−1 and 29.454 mm^−1 and 24.205 mm^−1 and 38.360 mm^−1
[4]; [10]
  Structure Model Index (SMI), Mean: 2.577
  Trabecular Pattern Factor (Tb · Pf), Mean: 26.805 mm^−1
[4]; non-inoculated tibia = 0%, vehicle = 100% bone lysis, MOR202 alone 12 mg/kg, LEN alone 50 mg/kg, combination 3 mg/kg MOR202 and 50 mg/kg LEN
  Reduction of bone lysis compared to vehicle control: 20%
NCI-H929 cells [5]
  Normalized specific killing, fractional product combination set as 1 (Table 7b), Exp. 1: 0.67
  Normalized specific killing, fractional product combination set as 1 (Table 8b), Exp. 1: −0.10
NCI-H929 cells [6]; NCI-H929 cells, Fractional Product Concept and Chou et al., 6 out of 6 experiments each
  Enhancement of MOR202 activity by LEN (in words): synergistically enhanced MOR202 activity
NCI-H929 cells [6]; PBMCs and NCI-H929 cells treated with LEN before MOR202, LEN 5 μM, MOR202 0.07 μg/ml, MOR03207 15 μg/ml
  % dead cells (raw data, Table 7a), Exp. 2 and 3: 39.92 % dead cells and 41.92 % dead cells
NCI-H929 cells [6]; PBMCs and NCI-H929 cells treated with LEN before MOR202, LEN 5 μM, MOR202 0.2 μg/ml (*), MOR03207 15 μg/ml
  % dead cells (raw data, Table 7a), Exp. 1: 38.65 % dead cells
NCI-H929 cells [6]; PBMCs and NCI-H929 cells treated with LEN, LEN 5 μM, MOR202 0.2 or 0.07 μg/ml, average of 3 experiments
  Normalized specific killing, AVERAGE (Table 7b): 0.63
NCI-H929 cells [6]; only effector cells treated with LEN before MOR202, LEN 5 μM, MOR202 0.07 μg/ml, MOR03207 15 μg/ml
  % dead cells (raw data, Table 8a), Exp. 2 and 3: 26.27 % dead cells and 25.72 % dead cells
NCI-H929 cells [6]; only effector cells treated with LEN before MOR202, LEN 5 μM, MOR202 0.2 μg/ml (*), MOR03207 15 μg/ml
  % dead cells (raw data, Table 8a), Exp. 1: 17.50 % dead cells
NCI-H929 cells [6]; only effector cells treated with LEN, LEN 5 μM, MOR202 0.2 or 0.07 μg/ml, average of 3 experiments
  Normalized specific killing, AVERAGE (Table 8b): 0.02
OPM-2 cells; 100 μM lenalidomide
  Absolute number of ABC (CD38 expression) LEN (extrapolated): 98,800 ABC
OPM-2 cells; 100 μM lenalidomide vs basal
  Absolute number of ABC (CD38 expression) INCREASE: 60,800 ABC
  Fold increase (CD38 expression): 2.6 fold
LP-1 cells; 100 μM lenalidomide
  Absolute number of ABC (CD38 expression) LEN (extrapolated): 162,500 ABC
  Effect (on CD38 expression): No
LP-1 cells; 100 μM lenalidomide vs basal
  Absolute number of ABC (CD38 expression) INCREASE: 37,500 ABC
  Fold increase (CD38 expression): 1.3 fold
NCI-H929 cells [7]; 100 μM lenalidomide
  Absolute number of ABC (CD38 expression) LEN (extrapolated): 390,000 ABC
  Effect (on CD38 expression): Weak
NCI-H929 cells [7]; 100 μM lenalidomide vs basal
  Absolute number of ABC (CD38 expression) INCREASE: 195,000 ABC
  Fold increase (CD38 expression): 2.0 fold
AMO-1 cells [8]; 100 μM lenalidomide
  Absolute number of ABC (CD38 expression) LEN (extrapolated): 115,000 ABC
AMO-1 cells [8]; 100 μM lenalidomide vs basal
  Absolute number of ABC (CD38 expression) INCREASE: 90,000 ABC
  Fold increase (CD38 expression): 4.5 fold
RPMI-8226 cells; 100 μM lenalidomide
  Absolute number of ABC (CD38 expression) LEN (extrapolated): 871,000 ABC
  Effect (on CD38 expression): Weak
RPMI-8226 cells; 100 μM lenalidomide vs basal
  Absolute number of ABC (CD38 expression) INCREASE: 199,000 ABC
  Fold increase (CD38 expression): 1.3 fold
RAMOS cells; LEN 100 mg/kg (Table 14) p.o., MOR202 1 mg/kg i.v.
  Number of mice alive at study termination (day 98): 0/7
RAMOS cells; LEN 100 mg/kg (Table 14) p.o., MOR202 1 mg/kg i.v. twice weekly, study 98 days
  Day of death (post-inoculation) Mean: 21.4 days
RAMOS cells; LEN 100 mg/kg (Table 14) p.o., MOR202 1 mg/kg i.v., vs vehicle control
  % ILS (based on median death day): 10%
RAMOS cells; LEN 100 mg/kg (Table 14; Table 13: 50 mg/kg) p.o. once daily, MOR202 1 mg/kg i.v. twice weekly, study 98 days
  Day of death (post-inoculation) Median: 22 days
